Assays:
NaV1.7 = biological target: T1, NaV1.7 (Rattus norvegicus, UniProt O08562); assay: whole-cell patch clamp, stable NaV1.[…] HEK cells (vincristine pre-incubated); format: cell-based
T1 construct: gene Scn9a

NaV1.8 = biological target: T2, NaV1.8 (Rattus norvegicus, UniProt Q62968); format: cell-based
T2 construct: gene Scn10a
T2 sequence (Q62968 whole entry): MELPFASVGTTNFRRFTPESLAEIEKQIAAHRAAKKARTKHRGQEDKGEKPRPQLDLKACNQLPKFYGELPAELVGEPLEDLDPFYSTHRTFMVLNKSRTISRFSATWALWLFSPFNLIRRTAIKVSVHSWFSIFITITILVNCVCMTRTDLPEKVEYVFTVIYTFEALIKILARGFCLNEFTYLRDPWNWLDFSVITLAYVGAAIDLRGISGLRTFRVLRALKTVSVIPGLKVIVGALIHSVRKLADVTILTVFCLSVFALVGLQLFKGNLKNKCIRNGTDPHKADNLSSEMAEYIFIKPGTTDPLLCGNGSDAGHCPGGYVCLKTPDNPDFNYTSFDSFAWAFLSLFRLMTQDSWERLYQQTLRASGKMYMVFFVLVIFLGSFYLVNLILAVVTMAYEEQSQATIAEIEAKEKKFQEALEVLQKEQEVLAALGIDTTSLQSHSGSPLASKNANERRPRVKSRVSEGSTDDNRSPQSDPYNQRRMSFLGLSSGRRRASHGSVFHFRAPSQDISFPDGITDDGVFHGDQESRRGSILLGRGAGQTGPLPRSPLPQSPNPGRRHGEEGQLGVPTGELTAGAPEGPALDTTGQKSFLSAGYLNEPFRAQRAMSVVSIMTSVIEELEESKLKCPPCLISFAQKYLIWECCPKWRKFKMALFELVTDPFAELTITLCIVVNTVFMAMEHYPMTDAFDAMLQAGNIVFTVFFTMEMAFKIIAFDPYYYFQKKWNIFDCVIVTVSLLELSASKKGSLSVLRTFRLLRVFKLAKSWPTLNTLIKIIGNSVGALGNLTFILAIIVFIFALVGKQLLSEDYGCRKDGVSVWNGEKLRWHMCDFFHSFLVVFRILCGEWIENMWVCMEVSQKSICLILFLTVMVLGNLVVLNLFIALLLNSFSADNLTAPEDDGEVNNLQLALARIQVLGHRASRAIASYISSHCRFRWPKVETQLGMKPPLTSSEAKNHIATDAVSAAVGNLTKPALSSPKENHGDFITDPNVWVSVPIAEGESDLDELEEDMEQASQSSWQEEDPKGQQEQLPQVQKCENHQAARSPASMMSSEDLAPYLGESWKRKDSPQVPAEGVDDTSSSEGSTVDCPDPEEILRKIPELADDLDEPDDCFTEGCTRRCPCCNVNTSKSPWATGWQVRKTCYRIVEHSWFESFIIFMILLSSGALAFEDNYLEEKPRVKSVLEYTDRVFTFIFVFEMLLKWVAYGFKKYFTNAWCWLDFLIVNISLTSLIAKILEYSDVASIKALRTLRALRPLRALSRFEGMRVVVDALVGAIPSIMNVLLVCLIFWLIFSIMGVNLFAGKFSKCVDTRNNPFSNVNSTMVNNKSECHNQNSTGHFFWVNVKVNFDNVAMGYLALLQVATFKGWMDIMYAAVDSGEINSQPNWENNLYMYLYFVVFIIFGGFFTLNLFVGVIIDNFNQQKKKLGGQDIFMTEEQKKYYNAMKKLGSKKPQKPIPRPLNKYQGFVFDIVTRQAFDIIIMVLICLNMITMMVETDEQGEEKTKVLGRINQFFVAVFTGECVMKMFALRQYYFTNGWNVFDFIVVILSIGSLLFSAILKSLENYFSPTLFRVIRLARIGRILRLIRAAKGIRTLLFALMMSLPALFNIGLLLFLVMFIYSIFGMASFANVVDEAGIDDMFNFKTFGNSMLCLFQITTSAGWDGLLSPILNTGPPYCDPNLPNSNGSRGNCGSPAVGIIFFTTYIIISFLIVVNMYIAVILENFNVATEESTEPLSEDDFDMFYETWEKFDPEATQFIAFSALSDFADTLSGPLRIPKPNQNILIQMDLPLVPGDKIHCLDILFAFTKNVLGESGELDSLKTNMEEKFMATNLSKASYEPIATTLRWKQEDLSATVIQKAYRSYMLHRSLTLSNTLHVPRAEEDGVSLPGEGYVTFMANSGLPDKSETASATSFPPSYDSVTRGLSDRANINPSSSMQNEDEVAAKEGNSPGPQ

T1 sequence (O08562 whole entry): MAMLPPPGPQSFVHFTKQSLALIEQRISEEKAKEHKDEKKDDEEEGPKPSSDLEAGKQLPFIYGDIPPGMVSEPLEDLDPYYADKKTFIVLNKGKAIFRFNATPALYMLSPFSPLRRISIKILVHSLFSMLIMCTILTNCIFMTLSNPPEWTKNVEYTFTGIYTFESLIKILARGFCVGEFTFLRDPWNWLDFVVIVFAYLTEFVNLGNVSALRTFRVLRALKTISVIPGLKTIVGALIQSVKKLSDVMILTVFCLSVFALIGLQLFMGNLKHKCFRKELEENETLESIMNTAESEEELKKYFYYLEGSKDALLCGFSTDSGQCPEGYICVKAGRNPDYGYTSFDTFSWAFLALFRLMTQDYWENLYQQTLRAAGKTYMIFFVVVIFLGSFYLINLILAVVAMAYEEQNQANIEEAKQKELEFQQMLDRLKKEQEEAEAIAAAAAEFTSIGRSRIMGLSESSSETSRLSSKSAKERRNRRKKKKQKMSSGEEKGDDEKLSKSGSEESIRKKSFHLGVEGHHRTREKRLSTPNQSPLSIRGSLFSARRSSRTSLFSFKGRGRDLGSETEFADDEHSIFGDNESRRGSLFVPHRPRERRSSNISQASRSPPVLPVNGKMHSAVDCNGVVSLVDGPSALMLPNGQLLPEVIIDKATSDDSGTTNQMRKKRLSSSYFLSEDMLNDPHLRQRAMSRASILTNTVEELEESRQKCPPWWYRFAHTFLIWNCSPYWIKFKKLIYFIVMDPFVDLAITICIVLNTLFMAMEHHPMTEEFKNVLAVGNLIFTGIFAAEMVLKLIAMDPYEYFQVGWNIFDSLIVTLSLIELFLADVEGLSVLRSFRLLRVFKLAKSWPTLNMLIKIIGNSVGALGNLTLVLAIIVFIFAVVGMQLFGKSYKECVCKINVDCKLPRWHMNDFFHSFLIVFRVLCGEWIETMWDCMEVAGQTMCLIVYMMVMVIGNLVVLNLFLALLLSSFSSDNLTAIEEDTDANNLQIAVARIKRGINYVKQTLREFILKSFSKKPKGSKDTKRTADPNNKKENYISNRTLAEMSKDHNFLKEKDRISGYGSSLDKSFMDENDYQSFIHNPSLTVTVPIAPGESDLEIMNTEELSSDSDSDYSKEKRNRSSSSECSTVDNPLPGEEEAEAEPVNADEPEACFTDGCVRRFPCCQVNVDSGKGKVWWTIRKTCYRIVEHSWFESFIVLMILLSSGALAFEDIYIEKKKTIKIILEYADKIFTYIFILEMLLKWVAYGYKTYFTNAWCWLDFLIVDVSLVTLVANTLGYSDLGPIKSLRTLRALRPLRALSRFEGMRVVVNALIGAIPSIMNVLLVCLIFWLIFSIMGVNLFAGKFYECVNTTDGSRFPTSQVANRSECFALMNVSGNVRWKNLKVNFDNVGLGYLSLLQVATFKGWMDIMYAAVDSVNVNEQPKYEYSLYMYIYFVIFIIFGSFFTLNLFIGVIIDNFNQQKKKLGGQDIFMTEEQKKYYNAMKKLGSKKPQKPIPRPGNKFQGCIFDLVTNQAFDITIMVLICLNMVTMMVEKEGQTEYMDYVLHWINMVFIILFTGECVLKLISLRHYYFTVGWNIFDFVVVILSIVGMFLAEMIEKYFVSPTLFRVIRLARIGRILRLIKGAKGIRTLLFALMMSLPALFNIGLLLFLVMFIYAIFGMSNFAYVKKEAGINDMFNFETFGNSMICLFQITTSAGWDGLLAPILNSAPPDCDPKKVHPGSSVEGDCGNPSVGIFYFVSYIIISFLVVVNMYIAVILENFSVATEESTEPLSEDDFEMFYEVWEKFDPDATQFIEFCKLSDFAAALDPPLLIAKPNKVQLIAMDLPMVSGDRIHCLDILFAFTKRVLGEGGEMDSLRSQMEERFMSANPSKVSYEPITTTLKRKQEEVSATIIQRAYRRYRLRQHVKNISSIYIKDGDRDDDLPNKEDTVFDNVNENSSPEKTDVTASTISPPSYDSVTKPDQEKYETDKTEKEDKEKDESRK

OCc1ccc(O[C@@H]2O[C@H](CO)[C@@H](O)[C@H](O)[C@H]2O)cc1 [GAS, Gastrodin]
IC50 (NaV1.7): 25.9 ± 0.98 µM | IC50 (NaV1.8): 67.5 ± 20.7 µM
